Measurements taken from patent publication US20260174717A1 (Sumitomo Pharma America, Inc., priority 2022, published 2026).
Marks after values point to notes of the source that are not given here.

Legend:
Male Swiss mice [1] = experiment: mouse marble burying test; assay type: in vivo; conditions: 8 mg/kg, ip; positive control; 30 min before 30 min test
Protocol: (§1) Thirty minutes later mice were individually placed in transparent plastic cages with 5 cm of sawdust on the floor and 25 marbles grouped in the center of the cage. The number of marbles covered by sawdust (2/3rd or more covered) was counted at the end of the 30 min test. Two days later, general locomotor activity was assessed in the activity meter test in the same animals. Mice were placed in an automated activity meter apparatus 30 minutes after dosing and the number of crossings recorded in 5-minute time bins for 30 minutes. Chlorpromazine (4 mg/kg, i.p.) was included as a positive assay control. […] Locomotor activity was analyzed by one-way ANOVA followed by Dunnett's post-hoc analysis. Effects of clobazam in the marble burying and activity meter tests were examined with the Mann-Whitney U test and unpaired student's t-test, respectively.

Male Swiss mice [2] = experiment: mouse activity meter test (general locomotor activity); assay type: in vivo; conditions: 4 mg/kg, ip; positive assay control; 30 minutes after dosing, recorded for 30 minutes
Protocol: as §1

Compound | Number of marbles buried (Mean ± SEM) (Male Swiss mice [1]) | Number of crossings (Mean ± SEM) (Male Swiss mice [2])
CN1C(=O)CC(=O)N(c2ccccc2)c2cc(Cl)ccc21 [Clobazam, clobazam] | 0.5 ± 0.3^a | –
CN(C)CCCN1c2ccccc2Sc2ccc(Cl)cc21 [Chlorpromazine] | – | 3.6 ± 0.7^a
